{"source": "patent US8617563B2", "about": "“Antichlamydial agents” (Duke University, priority 2011, dated 2013)", "key": {"CPAF [1]": {"target": "T1, CPAF (Chlamydia trachomatis serovar D, UniProt O84866)", "assay_type": "biochemical, C. trachomatis", "set-up": "6xHis; made in house; host or cells: E. coli (pET30b)", "settings": "GST-tagged chlamydial substrates, 37° C., 20 min", "experimental": "FIG. 4 depicts (A) Recombinant Chlamydia ORFs were tested for sensitivity to host and bacterial derived proteases. […] Purified his-tagged CPAF was incubated with GST-tagged chlamydial substrates at 37° C. for 20 min with increasing amounts of lactacystin. Cleavage products were run on an SDS PAGE gel and visualized with Coomassie blue staining. (C) Schematic summary of CPAF targets. […] Membranes from Chlamydia-infected HeLa cells were harvested and purified at 0, 24, 36 and 48 hours post-infection, and the abundance of the chlamydial proteins Ct005, IncC and IncD were monitored with specific antibodies. Na/K ATPase and IncG served as host and bacterial-loading controls, respectively.\n(§1) Cytosols from Chlamydia-infected HeLa cells (40 hrs) or recombinant his-tagged CPAF were pre-treated with rabbit polyclonal anti-CPAF or anti-IncA antisera, and incubated with GST-tagged Chlamydia proteins for 20 min at 37° C. […] Three example proteins shown include a type-III secretion (T3S) core component (CdsQ) a T3S chaperone (Mcsc) and a T3S needle component (Ct584). Processing of recombinant proteins in A-B were monitored by immunoblot analysis with specific antibodies. (C) Protease inhibitor profile of recombinant CPAF. Example shown for the chlamydial substrate GST-IncC. Degradation products were visualized by SDS-PAGE followed by staining with Coomassie blue. […]\nUninfected and HeLa cells pre-infected with L2 for 30 hrs were treated with inhibitory peptides and infected with EBs for 10 min Tarp translocation was indirectly visualized with an anti-phosphotyrosine antibody (A) and quantified by counting 50 separate cells (B). The stability of newly translocated Tarp was assessed by infecting cells as in (A) but with S^35-labeled EBs, followed by sequential immunoprecipitation of Tarp and MOMP and Phosphoimager analysis of precipitated material (C (I-IV)). […] IC50 values were determined by assessing CPAF cleavage of an Abz-tagged CPAF substrate (SEQ ID NO:9) by HPLC. […] Extracellular bacteria were determined. […] The number of internalized EBs was quantified per cell (H). […]"}, "CPAF [2]": {"target": "T1, CPAF", "test": "HPLC-based CPAF inhibition assay with Abz-tagged model substrate (SEQ ID NO:9)", "assay_type": "biochemical, C. trachomatis", "set-up": "6xHis; made in house; host or cells: E. coli BL21 (DE3), plasmid pET30b-CPAF", "settings": "CPAF 62.5 nM, substrate SEQ ID NO:9 0.5 mM, inhibitor 0-240 μM", "experimental": "FIG. 1 depicts the results of HPLC-based CPAF inhibition assays using a model CPAF substrate (SEQ ID NO:9) to compare inhibition of CPAF protease activity by SEQ ID NO:7, SEQ ID NO:2, and lactacystin. HPLC-based assays were performed in a final volume of 100 μL containing assay buffer, CPAF (62.5 nM), substrate 1 (0.5 mM), and varying concentrations of inhibitor (0-240 μM).\nHPLC-based assays comprised an Abz-tagged model CPAF substrate (SEQ ID NO:9) and were performed in a final volume of 100 μL containing 150 mM NaCl, 50 mM Tris pH 7.50, purified CPAF (62.5 nM), fluorescent-tagged model CPAF substrate (0.5 mM), and varying concentrations of each candidate compound (0-240 μM). IC50 values were determined by pre-incubating CPAF with varying concentrations of candidate compound for 5 min at room temperature prior to initiation of the reaction via the addition of model CPAF substrate. Reactions were allowed to proceed for 90 seconds at 25° C., followed by removal of 80 μL aliquots and quenching by the addition of 1.2 M HCl (40 μL). Data were converted to percent activity relative to a control reaction without candidate compound and fit to the following equation using GraFit v6.0, where [I] is the concentration of candidate compound and s is a slope factor: […]"}, "CPAF [3]": {"target": "T1, CPAF", "assay_type": "biochemical, C. trachomatis", "set-up": "endogenous in cells; host or cells: HeLa cells infected with C. trachomatis LGV-L2 434/Bu (the bacteria make the protein and secrete it into the host cytosol)", "settings": "cytosol pre-treated with inhibitor or antibody", "experimental": "as §1, with “FIG. 5 depicts (A) that Polyclonal anti-CPAF antisera blocks proteolysis of chlamydial substrates. Cytosols” for “Cytosols”, “GST-IncC.” for “GST-IncC. Degradation products were visualized by SDS-PAGE followed by staining with Coomassie blue.”\nRecombinant CPAF was generated using pET30b (Huang et al., Cell Host & Microbe, 4:529-542 (2008). For in vitro cleavage assays, Chlamydia ORFs were expressed in either yeast or E. coli. Crude recombinant proteins were incubated for 30 minutes with cytosol from uninfected or LGV-L2 infected (40 h) HeLa cells, and processing was assessed by SDS-PAGE and immunoblotting using standard techniques. Approximately 8% of the expressed chlamydial proteins were sensitive to degradation after incubation with cytosol derived from infected cells (FIG. 3A). Processing ranged from the generation of distinct cleavage fragments to complete degradation (FIG. 3B). […]"}, "CPAF [4]": {"target": "T1, CPAF", "set-up": "endogenous in cells; host or cells: HeLa cells infected with C. trachomatis LGV-L2 434/Bu (the bacteria make the protein and secrete it into the host cytosol)", "settings": "C. trachomatis LGV-L2 434-infected HeLa cells; Kumar et al. 2008; cited from earlier work"}}, "data": [{"smiles": "CC(=O)N[C@@H](CSC(=O)[C@]1([C@@H](O)C(C)C)NC(=O)[C@H](C)[C@@H]1O)C(=O)O", "note": "[lactacystin]", "values": [{"measurement": "Inhibition of proteolysis by recombinant CPAF", "setting": "CPAF [1]", "value": "inhibited"}, {"measurement": "IC50", "setting": "CPAF [2]", "value": "10.2 ± 2.3", "unit": "µM"}, {"measurement": "Protection of chlamydial proteins from degradation by cytosols of Chlamydia-infected cells", "setting": "CPAF [3]", "value": "protected from degradation"}, {"measurement": "Vimentin state in infected HeLa cells treated with lactacystin", "setting": "CPAF [4]", "value": "fiber oligomerization of vimentin"}]}]}
